In the experiment the target is T1, AsPC-1 HiBiT-KRASG12D (Homo sapiens, UniProt P01116, G12D).
T1 construct: insert the HiBiT tag onto the N-terminus of one or more of the endogenous KRAS alleles; endogenous in cells; host or cells: AsPC-1 (ATCC CRL-1682), CRISPR-Cas9 knock-in clone, one tagged allele
The experiment in a line: HiBiT degradation assay (G12D), AsPC-1 HiBiT-KRASG12D cells. The experiment is classed as cell-based. The settings on record: 24 hours treatment; for Dmax: ASPC1, AsPC-1 HiBiT-KRASG12D cells, maximum degradation observed; for DC50: AsPC-1 HiBiT-KRASG12D cells, HiBiT luminescence. Put shortly: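 Steps: treat HiBiT-KRASG12D AsPC-1 cells with compound for 24 hours; add alamar blue to 1× and incubate 4 hours to assess viability; wash with PBS; add HiBiT lytic detection reagent, incubate 45 minutes at room temperature; read luminescence. Viability fluorescence is normalized to DMSO wells.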
(In general: HiBiT is a short tag that completes a luciferase, so light tracks the accessible tagged protein.)

T1 sequence (P01116 1-188 isoform P01116-2 G12D): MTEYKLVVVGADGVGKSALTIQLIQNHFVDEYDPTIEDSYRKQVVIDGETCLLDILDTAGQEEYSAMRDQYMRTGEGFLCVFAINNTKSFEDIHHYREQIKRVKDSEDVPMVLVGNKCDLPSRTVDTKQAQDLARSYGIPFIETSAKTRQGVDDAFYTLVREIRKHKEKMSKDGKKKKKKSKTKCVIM

As to `CCc1cccc2cc(O)cc(-c3ncc4c(N5CC6CCC(C5)N6)nc(OCCN5CC(CC6CCN(c7cc([C@@H](C(=O)N8C[C@H](O)C[C@H]8C(=O)N[C@@H](C)c8ccc(-c9scnc9C)cc8)C(C)C)on7)CC6)C5)nc4c3F)c12` [Compound 234, (2S,4R)-1-[(2S)-2-(3-{4-[(1-{2-[(4-{3,8-diazabicyclo[3.2.1]octan-3-yl}-7-(8-ethyl-3-hydroxynaphthalen-1-yl)-8-fluoropyrido[4,3-d]pyrimidin-2-yl)oxy]ethyl}azetidin-3-yl)methyl]piperidin-1-yl}-1,2-oxazol-5-yl)-3-methylbutanoyl]-4-hydroxy-N-[(1S)-1-[4-(4-methyl-1,3-thiazol-5-yl)phenyl]ethyl] pyrrolidine-2-carboxamide], the Dmax (in general, the largest share of the target that was removed) is 20 to 60% and the DC50 (usually the midpoint of the concentration-degradation curve) fell in the range of 1000 to 3000 nM.

Turning to `CCc1cccc2cc(O)cc(-c3ncc4c(N5CC6CCC(C5)N6)nc(OCCN5CCC(CN6CC7(C6)CN(c6cc([C@H](C(=O)N8C[C@H](O)C[C@H]8C(=O)N[C@@H](C)c8ccc(-c9scnc9C)cc8)C(C)C)on6)C7)CC5)nc4c3F)c12` [Compound 235, (2S,4R)-1-[(2R)-2-[3-[6-[1-[2-[[4-(3,8-diazabicyclo[3.2.1]octan-3-yl)-7-(8-ethyl-3-hydroxy-1-naphthyl)-8-fluoro-pyrido[4,3-d]pyrimidin-2-yl]oxyethyl]-4-piperidyl]methyl]-2,6-diazaspiro[3.3]heptan-2-yl]isoxazol-5-yl]-3-methyl-butanoyl]-4-hydroxy-N-[(1S)-1-[4-(4-methylthiazol-5-yl)phenyl]ethyl]pyrrolidine-2-carboxamide], the Dmax lay in the range of 80 to 100% and the DC50 was < 600 nM.

In the case of `CCc1cccc2cc(O)cc(-c3ncc4c(N5CC6CCC(C5)N6)nc(OCCN5CCC(CN6CC7(C6)CN(c6cc([C@@H](C(=O)N8C[C@H](O)C[C@H]8C(=O)N[C@@H](C)c8ccc(-c9scnc9C)cc8)C(C)C)on6)C7)CC5)nc4c3F)c12` [Compound 236], the DC50 is > 3000 nM.

For `CCc1cccc2cc(O)cc(-c3ncc4c(N5CC6CCC(C5)N6)nc(OCCN5CCC(C)(CCOc6cc([C@H](C(=O)N7C[C@H](O)C[C@H]7C(=O)N[C@@H](C)c7ccc(-c8scnc8C)cc7)C(C)C)on6)CC5)nc4c3F)c12` [Compound 237], the DC50 was > 3000 nM.

In the case of `CCc1cccc2cc(O)cc(-c3ncc4c(N5CC6CCC(C5)N6)nc(OCCN5CCC(C)(CCOc6cc([C@@H](C(=O)N7C[C@H](O)C[C@H]7C(=O)N[C@@H](C)c7ccc(-c8scnc8C)cc7)C(C)C)on6)CC5)nc4c3F)c12` [Compound 238], the Dmax fell in the range of 80 to 100% and the DC50 was < 600 nM.

Turning to `CCc1cccc2cc(O)cc(-c3ncc4c(N5CC6CCC(C5)N6)nc(OCCN5CCC(F)(CC6CCN(c7cc([C@H](C(=O)N8C[C@H](O)C[C@H]8C(=O)N[C@@H](C)c8ccc(-c9scnc9C)cc8)C(C)C)on7)CC6)CC5)nc4c3F)c12` [Compound 239], the Dmax lay within 80 to 100% and the DC50 is < 600 nM.

In the case of `CCc1cccc2cc(O)cc(-c3ncc4c(N5CC6CCC(C5)N6)nc(OCCN5CCC(F)(CC6CCN(c7cc([C@@H](C(=O)N8C[C@H](O)C[C@H]8C(=O)N[C@@H](C)c8ccc(-c9scnc9C)cc8)C(C)C)on7)CC6)CC5)nc4c3F)c12` [Compound 240], the DC50 is > 3000 nM.

Regarding `CCc1cccc2cc(O)cc(-c3ncc4c(N5CCCCCC5)nc(OC[C@@H]5CC[C@@H](COC(=O)N6CC(Oc7cc([C@H](C(=O)N8C[C@H](O)C[C@H]8C(=O)N[C@@H](C)c8ccc(-c9scnc9C)cc8)C(C)C)on7)C6)N5C)nc4c3F)c12` [Compound 241], the Dmax is 60 to 80% and the DC50 was < 600 nM.

Consider `CCc1cccc2cc(O)cc(-c3ncc4c(N5CC6CCC(C5)N6)nc(OCCN5CCC[C@H](CN6CCN(c7cc([C@H](C(=O)N8C[C@H](O)C[C@H]8C(=O)N[C@@H](C)c8ccc(-c9scnc9C)cc8)C(C)C)on7)CC6)C5)nc4c3F)c12` [Compound 243, (2S,4R)-1-[(2R)-2-[3-[4-[(3R)-1-[2-[[4-(3,8-diazabicyclo[3.2.1]octan-3-yl)-7-(8-ethyl-3-hydroxy-1-naphthyl)-8-fluoro-pyrido[4,3-d]pyrimidin-2-yl]oxyethyl]-3-piperidyl]methyl]piperazin-1-yl]isoxazol-5-yl]-3-methyl-butanoyl]-4-hydroxy-N-[(1S)-1-[4-(4-methylthiazol-5-yl)phenyl]ethyl]pyrrolidine-2-carboxamide], for which the Dmax lay in the range of 80 to 100% and the DC50 is < 600 nM.

On to `CCc1cccc2cc(O)cc(-c3ncc4c(N5CC6CCC(C5)N6)nc(OCCN5CCC(CN6CC(Oc7cc([C@H](C(=O)N8C[C@H](O)C[C@H]8C(=O)N[C@@H](C)c8ccc(-c9scnc9C)cc8)C(C)C)on7)C6)CC5)nc4c3F)c12` [Compound 244, (2S,4R)-1-[(2R)-2-[3-({1-[(1-{2-[(4-{3,8-diazabicyclo[3.2.1]octan-3-yl}-7-(8-ethyl-3-hydroxynaphthalen-1-yl)-8-fluoropyrido[4,3-d]pyrimidin-2-yl)oxy]ethyl}piperidin-4-yl)methyl]azetidin-3-yl}oxy)-1,2-oxazol-5-yl]-3-methylbutanoyl]-4-hydroxy-N-[(1S)-1-[4-(4-methyl-1,3-thiazol-5-yl)phenyl]ethyl] pyrrolidine-2-carboxamide], for which the maximal degradation (Dmax) is 80 to 100% and the DC50 was < 600 nM.

Take `CCc1cccc2cc(O)cc(-c3ncc4c(N5CC6CCC(C5)N6)nc(OCCN5CCC(CN6CC(Oc7cc([C@@H](C(=O)N8C[C@H](O)C[C@H]8C(=O)N[C@@H](C)c8ccc(-c9scnc9C)cc8)C(C)C)on7)C6)CC5)nc4c3F)c12` [Compound 245]: the DC50 is > 3000 nM.

Consider `CCc1cccc2cc(O)cc(-c3ncc4c(N5CC6CCC(C5)N6C=O)nc(OCCN5CCC(CC6CN(c7cc([C@H](C(=O)N8C[C@H](O)C[C@H]8C(=O)N[C@@H](C)c8ccc(-c9scnc9C)cc8)C(C)C)on7)C6)CC5)nc4c3F)c12` [Compound 246], for which the DC50 is > 3000 nM.

Consider `CCc1cccc2cc(O)cc(-c3ncc4c(N5CC6CCC(C5)N6C=O)nc(OCCN5CCC(CC6CN(c7cc([C@@H](C(=O)N8C[C@H](O)C[C@H]8C(=O)N[C@@H](C)c8ccc(-c9scnc9C)cc8)C(C)C)on7)C6)CC5)nc4c3F)c12` [Compound 247], for which the DC50 was > 3000 nM.

For `CCc1cccc2cc(O)cc(-c3ncc4c(N5CC6CCC(C5)N6)nc(OCCN5CCC(CCOc6cc([C@@H](C(=O)N7C[C@H](O)C[C@H]7C(=O)N[C@@H](C)c7ccc(-c8scnc8C)cc7)C(C)C)on6)CC5)nc4c3F)c12` [Compound 248], the DC50 was > 3000 nM.

For `CCc1cccc2cc(O)cc(-c3ncc4c(N5CC6CCC(C5)N6)nc(OCCN5CCC(CCOc6cc([C@H](C(=O)N7C[C@H](O)C[C@H]7C(=O)N[C@@H](C)c7ccc(-c8scnc8C)cc7)C(C)C)on6)CC5)nc4c3F)c12` [Compound 249], the Dmax lay within 80 to 100% and the DC50 is < 600 nM.

For `CCc1cccc2cc(O)cc(-c3ncc4c(N5C[C@H]6CC[C@@H](C5)N6)nc(OC[C@@H]5CC[C@@H](COC(=O)N6CCC(Oc7cc([C@@H](C(=O)N8C[C@H](O)C[C@H]8C(=O)N[C@@H](C)c8ccc(-c9scnc9C)cc8)C(C)C)on7)CC6)N5C)nc4c3F)c12` [Compound 255, ((2S,5S)-5-(((4-((1R,5S)-3,8-diazabicyclo[3.2.1]octan-3-yl)-7-(8-ethyl-3-hydroxynaphthalen-1-yl)-8-fluoropyrido[4,3-d]pyrimidin-2-yl)oxy)methyl)-1-methylpyrrolidin-2-yl)methyl 4-((5-((S)-1-((2S,4R)-4-hydroxy-2-(((S)-1-(4-(4-methylthiazol-5-yl)phenyl)ethyl)carbamoyl)pyrrolidin-1-yl)-3-methyl-1-oxobutan-2-yl)isoxazol-3-yl)oxy)piperidine-1-carboxylate], the Dmax was 20 to 60% and the DC50 was 600 to 1000 nM.

Turning to `CCc1cccc2cc(O)cc(-c3ncc4c(N5C[C@H]6CC[C@@H](C5)N6)nc(OC[C@@H]5CC[C@@H](COC(=O)N6CC7(C6)CN(c6cc([C@H](C(=O)N8C[C@H](O)C[C@H]8C(=O)N[C@@H](C)c8ccc(-c9scnc9C)cc8)C(C)C)on6)C7)N5C)nc4c3F)c12` [Compound 256, ((2S,5S)-5-(((4-((1R,5S)-3,8-diazabicyclo[3.2.1]octan-3-yl)-7-(8-ethyl-3-hydroxynaphthalen-1-yl)-8-fluoropyrido[4,3-d]pyrimidin-2-yl)oxy)methyl)-1-methylpyrrolidin-2-yl)methyl 6-(5-((R)-1-((2S,4R)-4-hydroxy-2-(((S)-1-(4-(4-methylthiazol-5-yl)phenyl)ethyl)carbamoyl)pyrrolidin-1-yl)-3-methyl-1-oxobutan-2-yl)isoxazol-3-yl)-2,6-diazaspiro[3.3]heptane-2-carboxylate], the Dmax is 80 to 100% and the DC50 is < 600 nM.

With `CCc1cccc2cc(O)cc(-c3ncc4c(N5CC6CCC(C5)N6)nc(OC[C@@H]5CC[C@H](COC(=O)N6CCN(c7cc([C@H](C(=O)N8C[C@H](O)C[C@H]8C(=O)N[C@@H](C)c8ccc(-c9scnc9C)cc8)C(C)C)on7)CC6)N5C)nc4c3F)c12` [Compound 259, [(2R,5S)-5-{[(4-{3,8-diazabicyclo[3.2.1]octan-3-yl}-7-(8-ethyl-3-hydroxynaphthalen-1-yl)-8-fluoropyrido[4,3-d]pyrimidin-2-yl)oxy]methyl}-1-methylpyrrolidin-2-yl]methyl 4-{5-[(2R)-1-[(2S,4R)-4-hydroxy-2-{[(1S)-1-[4-(4-methyl-1,3-thiazol-5-yl)phenyl]ethyl]carbamoyl}pyrrolidin-1-yl]-3-methyl-1-oxobutan-2-yl]-1,2-oxazol-3-yl}piperazine-1-carboxylate], the Dmax is 80 to 100% and the DC50 was < 600 nM.

These data come from patent publication US20250206732A1, “COMPOUNDS AND METHODS FOR THE TARGETED DEGRADATION OF KRAS” (Arvinas Operations, Inc., priority 2022, published 2025).
